Square brackets hold non-standard residues; d marks the D form. Peptide text beside a SMILES is read from it. Nle = CCCC[C@H](N)C(=O)O

In assay [1] the test system is XL2 cells. Put plainly: FACS analysis, % of cells blocked in G2/M in XL2 cell cultures. Type of assay: cell-based, Xenopus. As to the method: The molecules synthesized were tested in vitro on the proteolytic activities described of the proteasome, then in vivo on Xenopus (XL2) cell cultures. Knowledge of the cell cycle of XL2 cells has made it possible to carry out synchronization experiments and also to evaluate the duration of each of the phases of the cycle. […]
(Flow cytometry measures light scatter and fluorescence of single cells or particles in a stream.)

Assay [2] relates to cell cycle progression (mitosis). The conditions noted are these: lower concentrations only slow down the mitosis; cited from earlier work.
The test system of assay [3] is XL2 cells. Put plainly: Fluorescence microscopy analysis of the stages of mitosis. Format: cell-based, Xenopus. The conditions noted are these: 50 cells blocked in mitosis. As to the method:
The molecules synthesized were tested in vitro on the proteolytic activities described of the proteasome, then in vivo on Xenopus (XL2) cell cultures. Knowledge of the cell cycle of XL2 cells has made it possible to carry out synchronization experiments and also to evaluate the duration of each of the phases of the cycle.
Observation of the nuclear content makes it possible to determine the different stages of the mitosis. The following results were obtained using 50 cells blocked in mitosis. The first 7 inhibitors were studied using fluorescence microscopy.

The target of assay [4] is purified proteasome (chymotrypsin activity) (Homo sapiens, UniProt P28074). Description: Inhibition of the chymotrypsin catalytic activity of the purified proteasome. The conditions noted are these: 1 mM compound. Format: biochemical. From the text: In vitro analyses of the inhibitory potentialities of the Hydrazinoazapeptoids synthesized vis-à-vis the enzyme activities of the proteasome.
The inhibitory potentialities of the hydrazinoazapeptoids have been quantified with respect to the chymotrypsin enzyme activities of the purified proteasome. The results are expressed as percentages of activity inhibition.
Measurement of the inhibitory properties of the synthesized compounds on the chymotrypsin catalytic activity of the purified proteasome.

For the molecule `CCCC[C@@H](C=O)NC(=O)[C@H](CC(C)C)NC(=O)[C@H](CC(C)C)NC(C)=O` [ALLN, N-acetyl-leucinyl-leucinyl-norleucinal, reference compound] (Ac-Leu-Leu-[Nle]-aldehyde), the “% of cells blocked in G2/M” value with XL2 cells [1] (100 μM, 7 h) is 53%. For the same molecule, the “concentration in the medium necessary to obtain a blockage in mitosis” value with XL2 cells [1] (XL2 cell cultures) was 100 µM. For the same molecule, in assay [2], the “concentration producing an extended stop in mitosis” value is more than 50 µg/mL. In the assay with XL2 cells [3], the “% Anaphase + Telophase” value was 3%, the “% Metaphase” value was 83% and the “% Prophase” value turned out to be 15%. In assay [4], the “% inhibition of chymotrypsin activity of the purified proteasome” value was 91% and the inhibition at 1000 µM worked out at 90%.

Usually inhibition stands for how much of the control response was suppressed. Low readings indicate a response near the control, high ones a response far below the control.

These data come from US20040142851A1, “Hydrazinopeptoids and their uses for treating cancers” (priority 2001, published 2004).
